Values quoted from earlier work as cited in article PMC4646457 (PLoS ONE, 2015).

Parameters: method as in study EGF10002
Conditions: ref study EGF10002, cited from earlier work

CS(=O)(=O)CCNCc1ccc(-c2ccc3ncnc(Nc4ccc(OCc5cccc(F)c5)c(Cl)c4)c3c2)o1 [lapatinib]
accumulation with once daily dosing (100 and 175 mg doses): ~50% | half-life (Day 1): 7 h
